Calls of active or inactive are those of the source. No cut-off for these calls is given here.
Tests used:
[1] = tested on: Rattus norvegicus; assay: Antiallergic activity in iv dosed rat assessed as inhibition of ovalbumin-induced passive cutaneous anaphylaxis dosed along with ovalbumin challenge; format: functional; details: read-out: ID50 (the source's name)
[2] = tested on: Rattus norvegicus; assay: Antiallergic activity in po dosed rat assessed as inhibition of ovalbumin-induced passive cutaneous anaphylaxis pretreated for 10 to 15 mins followed by ovalbumin challenge; format: functional; details: for ED50: read-out: ID50 (the source's name)
[3] = tested on: Rattus norvegicus; assay: Antiallergic activity in rat assessed as inhibition of ovalbumin-induced passive cutaneous anaphylaxis at 0.5 mg/kg, iv dosed along with ovalbumin challenge relative to control; format: functional
[4] = tested on: Rattus norvegicus; assay: Antiallergic activity in rat assessed as inhibition of ovalbumin-induced passive cutaneous anaphylaxis at 5 mg/kg, iv dosed along with ovalbumin challenge relative to control; format: functional
[5] = tested on: Rattus norvegicus; assay: Antiallergic activity in iv dosed rat assessed as inhibition of antigen-induced passive cutaneous anaphylaxis; format: functional
[6] = tested on: Rattus norvegicus; assay: Antiallergic activity in po dosed rat assessed as inhibition of antigen-induced passive cutaneous anaphylaxis; format: functional
[7] = species: Cavia porcellus; assay: Antagonist activity at histamine receptor in guinea pig ileum assessed as reduction in histamine-induced contractions up to 0.1 mM; format: tissue-based

| Compound | ED50 [1] | inhibition [3] | inhibition in vivo at 0.5 mg/kg [3] | other results |
| --- | --- | --- | --- | --- |
| O=C([O-])c1cc(=O)c2c(OCC(O)COc3cccc4oc(C(=O)[O-])cc(=O)c34)cccc2o1.[Na+].[Na+] [CROMOLYN SODIUM] | 1 mg/kg |  |  | ID50 [2]: inactive |
| O=C(O)c1cccn2c(=O)c3cc4ccccc4cc3nc12 |  | inactive |  |  |
| O=C(O)c1ccc2nc(O)cc(=O)n2c1 |  |  |  | inhibition in vivo at 5 mg/kg [4]: 26% |
| Cc1cc(=O)n2cc(C(=O)O)ccc2n1 |  | inactive |  |  |
| O=C(O)c1ccc2nc3cc4ccccc4cc3c(=O)n2c1 | 0.1 mg/kg |  | 100% | ED50 [5]: 0.015 mg/kg; ID50 [2]: inactive; ED50 [6]: < 0.1 mg/kg; inhibition [7]: inactive |
| O=C(O)c1cccn2c(=O)c3ccccc3nc12 |  | inactive |  |  |
| O=C(O)c1ccc2nc3c(c(=O)n2c1)CCCC3 |  | inactive |  |  |
| Cl.O=C(O)c1ccc2nc3ccccc3c(=O)n2c1 | 0.5 mg/kg |  | 45% | ED50 [2]: 2.5 mg/kg; inhibition [7]: inactive |
| O=C1c2ccccc2S(=O)(=O)c2cc(-c3nn[nH]n3)ccc21 [DOXANTRAZOLE] | 1.5 mg/kg |  |  | ED50 [2]: 5 mg/kg |
| O=C(O)c1ccn2c(=O)c3ccccc3nc2c1 |  |  | 21% |  |

Reference: ChEMBL document CHEMBL3227979, “11-Oxo-11H-pyrido[2,1-b]quinazoline-8-carboxylic acid, an orally active antiallergy agent” (1979)
